Laboratory results from patent publication US11896423B2, “Time-varying quantification of capacitive and resistive arterial blood flow” (Board of Regents of the University of Nebraska, priority 2018, dated 2024).

Tested on: renal sympathetic tone
Experiment: Renal pressure-flow measurements in anesthetized swine before and after renal sympatholysis with intrathecal ropivacaine
Type: in vivo, pigs
Description: METHODS: Referring to FIG. 4, nine adult male New Zealand White rabbits were implanted with arterial pressure telemeters and bilateral renal flow probes. One kidney of each rabbit was surgically denervated. The rabbits were acclimated to a procedure room and, after a two-week recovery, measurements of arterial pressure and bilateral renal blood flow were obtained in the conscious state. Referring to FIG. 5, ten pigs were induced and then anesthesia was maintained via ketamine-midazolam IV infusion. T9/T10 intrathecal and arterial access were established. A Volcano ComboWire® was placed in the renal artery to measure intravascular pressure and flow velocity. Intrathecal ropivacaine was given to reduce renal sympathetic tone, and renal pressure-flow measurements were repeated.
Referring to FIG. 6, Arterial pressure and renal blood flow measurements were used to estimate resistive flow as a function of time, which was in turn used to derive the renal pressure-flow time-varying transfer function (TVTF). TVTF analysis focused on known sympathetic vaso-motor frequencies (0.2-0.75 Hz in rabbits, 0.03-0.1 Hz in pigs). Control of renal vascular resistance in different states of innervation was characterized by occurrence plots of admittance gain and phase shift of the TVTF. Admittance gain reflects the normalized magnitude of oscillations in renal blood flow; phase shift reflects the timing of renal blood flow oscillations relative to arterial pressure.
Table 2 (below) illustrates the mean hemodynamics of the pigs before (“Baseline”) and after renal sympatholysis with intrathecal ropivacaine (“Ropi”).

With CCCN1CCCC[C@H]1C(=O)Nc1c(C)cccc1C [Ropi, ropivacaine] the “Renal Blood Flow Velocity” value (mean hemodynamics of anesthetized pigs after renal sympatholysis with intrathecal ropivacaine (T9/T10), baseline 24 +/− 3) was 28 ± 5 cm/s, the “Arterial Pressure” value (mean hemodynamics of anesthetized pigs after renal sympatholysis with intrathecal ropivacaine (T9/T10), baseline 83 +/− 4) was 72 +/− 7 mmHg and the “Heart Rate” value (mean hemodynamics of anesthetized pigs after renal sympatholysis with intrathecal ropivacaine (T9/T10), baseline 85 +/− 8) was 71 +/− 5 bpm. The “Phase asynchrony of the renal pressure-flow time-varying transfer function at known sympathetic vasomotor frequencies” value (pigs, state PRIOR to intrathecal ropivacaine compared with after (0.03-0.1 Hz)) was “more phase asynchrony”.
